Laboratory results as given in US12492192B2, “Crystalline form of lifitegrast, and pharmaceutical composition comprising the same” (YS LIFE SCIENCE CO. LTD., priority 2020, dated 2025).
In brackets after ≈: the same amount, converted by molar mass. Entries after “also recorded” stand apart in the source; their conditions may differ.

Columns and labels:
Format in all cases: physicochemical
Solubility test in water = conditions: for Solubility in water: stirred at room temperature; for Solubility compared with that of crystalline form A: room temperature, relative to crystalline form A
Protocol: After crystalline forms Y and S of lifitegrast obtained from the Examples and crystalline form A of lifitegrast obtained from the Comparative Example were dissolved in water, respectively, they were sufficiently stirred at room temperature to perform a solubility test.

[1] = Hygroscopicity test (DVS); conditions: for Moisture Absorption at 25° C./80% RH: DVS, isothermal 25° C.; for Hygroscopicity (DVS analysis, in words): 25° C., relative humidity 5-95%, EP standard 25° C., 80% RH
Protocol: Using a DVS (dynamic vapor absorption, VTI SGA-100, TA Instruments) which is a vapor adsorption and desorption device, crystalline forms Y and S of lifitegrast obtained from the Examples and crystalline form A of lifitegrast obtained from the Comparative Example were subjected to moisture adsorption and desorption once repeatedly, respectively, at an isothermal condition of 25° C. and in a relative humidity range of 5-95% with an interval of 5% RH.

[2] = Thermal stability test (XRPD and HPLC after storage); conditions: 40° C./75% RH, 4 weeks, brown vial in aluminum pouch
Protocol: 50 mg of crystalline form Y and 50 mg of crystalline form S obtained from the Examples were put into brown vials, respectively, and secondary packaging was carried out in an aluminum pouch, followed by storing at 40±2° C. and 75±5% RH. After 4 weeks, each sample was taken out, X-ray powder diffraction (XRPD) analysis was performed to evaluate the stability of the crystalline form, and high performance liquid chromatography (HPLC) analysis was performed to evaluate the generation and increase of related substances.
The results of the X-ray powder diffraction (XRPD) analysis and high performance liquid chromatography (HPLC) analysis are shown in Table 5 and 6, respectively.

Structure (SMILES)	Solubility in water (Solubility test in water)	Moisture Absorption at 25° C./80% RH [1]	Solubility compared with that of crystalline form A (Solubility test in water)	Generation and increase of related substances (HPLC analysis) [2]	Stability of the crystalline form (XRPD analysis) [2]	Hygroscopicity (DVS analysis, in words) [1]
CS(=O)(=O)c1cccc(C[C@H](NC(=O)c2c(Cl)cc3c(c2Cl)CCN(C(=O)c2ccc4ccoc4c2)C3)C(=O)O)c1 [Crystalline Form A, lifitegrast]	32 µg/mL (≈ 52 µM)	1.0%				
CS(=O)(=O)c1cccc(C[C@H](NC(=O)c2c(Cl)cc3c(c2Cl)CCN(C(=O)c2ccc4ccoc4c2)C3)C(=O)O)c1 [Crystalline Form S, lifitegrast]	64 µg/mL (≈ 104 µM)	0.1%	twice or more	no related substance was observed; also recorded: No generation of Related	did not change in appearance and polymorphism; also recorded: Retention of Crystalline Form	low hygroscopicity; also recorded: lower hygroscopicity than the crystalline form A
CS(=O)(=O)c1cccc(C[C@H](NC(=O)c2c(Cl)cc3c(c2Cl)CCN(C(=O)c2ccc4ccoc4c2)C3)C(=O)O)c1 [Crystalline Form Y, lifitegrast]	67 µg/mL (≈ 109 µM)	2.9%	twice or more	no related substance was observed; also recorded: No generation of Related	did not change in appearance and polymorphism; also recorded: Retention of Crystalline Form	low hygroscopicity
